This is an account of results in US12391698B2, “Substituted piperidines and piperazines and methods for the treatment of CNS disorders” (SUVEN LIFE SCIENCES LIMITED, priority 2022, dated 2025).

Molecules are shown by their SMILES. Structures can show the parent of a compound that is named as a salt.

Series [1] has as its system Male Wistar rats. The series can be described thus: Effect on sleep/wake profile (EEG/EMG telemetry). It is filed as in vivo, rat. The settings on record: 10 mg/kg, p.o., dosed 15 min prior to lights-off. The source says: Male Wistar rats were anesthetized with isoflurane (Baxter India Private Limited: 4% in oxygen for induction; 2% for maintenance) and were fixed into the stereotaxic frame (Stoelting, Illinois, USA) to perform surgery. An incision was made to reveal bregma from which coordinates were taken. Telemetric transmitter (Model F40-EET; DSI, St. Paul, MN, USA) was implanted into intraperitoneal cavity of the rats and leads were tunneled subcutaneously to the skull. One pair of electrodes were implanted epidurally into the frontal cortex region using stainless steel screws (CMA Microdialysis, Stockholm, Sweden) at coordinates of AP +3.2 mm, ML ±3.0 mm (Paxinos and Watson 2004) for recording of EEG and electrodes were fixed to the skull with dental acrylic cement (Dentalon® plus). The second set of lead wires were implanted into the neck nuchal muscle to record electromyogram (EMG). After a surgical recovery of minimum 3 weeks, animals were acclimatized to the handling procedures and were given a mock dosing for 3 days before the first experimental day.
One hour prior to lights-off, transmitter was switched on using a magnet and animals were transferred on to the receiver along with the home cage. […]
The amount of time spent in wake was determined for every 30 min and comparison between treatments was done using Bonferroni's post test.

Series [2] has as its system Male CD1 mice. The series can be described thus: Resident-intruder task. The note with it: 3.0 mg/kg, p.o., 30 min prior to trial. It is filed as in vivo, mouse. How it is done: Male CD1 mice of weight 20-35 g (Resident) and 15-25 g (Intruder) were used. Resident mice were habituated individually with an ovariectomized female mouse in each cage and intruders were habituated socially for 1 week. β-estradiol at a dose of 0.2 mg/kg, s.c. was administered to female mice during habituation. On day 1 and day 2, intruder was exposed to resident mouse in resident's home cage for a period of 10 min and duration of attack was measured. During this exposure, female mouse were removed from the cage. On day 4 from initial exposure, animals were randomized based on their duration of attacking and administered respective treatments. Test compound and vehicle were administered 30 min prior to the trial. After post dose interval resident mice were exposed to same intruder for 10 min and duration of attack was recorded. Resident intruder task models aggressive behavior.

Series [3] concerns Male Wistar rats. The experiment in a line: DOI-induced head twitch response. The note with it: 3.0 mg/kg, s.c., 30 min prior to DOI. Format: in vivo, rat. How it is done: On day 1 male Wistar rats (220-250 g) were habituated in a circular cylinder for a period of 15 min. On day 2, the rats were brought to the experimental room 30 min prior to the experiment. All the animals were administered with respective formulations i.e. vehicle or test compound 30 min prior to DOI or vehicle administration. Immediately following DOI or vehicle administration, the animals were kept in the circular cylinder for a period of 10 min to score the head twitches. Compounds which act as 5-HT2A antagonists attenuate DOI-induced head twitches.

In the case of `O=C1C[C@@H]2CCCN2C(=O)N1CCCCN1CCN(c2nsc3ccccc23)CC1` [Example 2, 2-[4-(4-Benzo[d]isothiazol-3-yl-piperazin-1-yl)-butyl]-tetrahydro-pyrrolo[1,2-c]pyrimidine-1,3-dione oxalate], the “change in percent time wake” value in series [1] is listed as “no change”. The “Inference, resident intruder task (duration of attack)” value in series [2] was “Active”. For the same compound, the “Inference, DOI-induced head twitch response” value in series [3] was “Active”.
